pIC50: −log10 of the molar value. Each block holds one compound with its values, some of them ahead of it.
Legend:
[1] = biological target: T1, Fatty-acid amide hydrolase 1 (Rattus norvegicus, UniProt P97612); assay: Inhibition of rat FAAH using [3H]-AEA as substrate by liquid chromatography-mass spectrometry
T1 sequence (P97612 whole entry): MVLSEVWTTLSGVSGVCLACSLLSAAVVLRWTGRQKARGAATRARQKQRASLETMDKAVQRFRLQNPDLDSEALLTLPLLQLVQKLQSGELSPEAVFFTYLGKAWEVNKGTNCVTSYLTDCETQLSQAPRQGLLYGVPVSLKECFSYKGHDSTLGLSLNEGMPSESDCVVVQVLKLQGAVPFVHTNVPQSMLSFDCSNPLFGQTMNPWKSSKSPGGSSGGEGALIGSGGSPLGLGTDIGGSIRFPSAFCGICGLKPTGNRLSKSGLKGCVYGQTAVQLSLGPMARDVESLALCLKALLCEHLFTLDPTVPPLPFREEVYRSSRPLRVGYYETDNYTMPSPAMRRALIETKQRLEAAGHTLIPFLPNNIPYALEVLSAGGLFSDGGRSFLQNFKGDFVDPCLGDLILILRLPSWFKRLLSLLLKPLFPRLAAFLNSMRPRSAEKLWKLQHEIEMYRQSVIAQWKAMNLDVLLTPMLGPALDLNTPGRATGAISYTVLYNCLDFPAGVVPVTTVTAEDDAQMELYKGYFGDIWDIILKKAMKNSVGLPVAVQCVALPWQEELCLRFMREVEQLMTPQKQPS

[2] = In vivo inhibition of FAAH in NMRI mouse assessed as remaining enzymatic activity in brain at 30 mg/kg, po measured after 1 hr by AEA-substrate based scintillation counting method relative to control; assay type: functional
[3] = In vivo inhibition of FAAH in NMRI mouse assessed as remaining enzymatic activity in liver at 30 mg/kg, po measured after 1 hr by AEA-substrate based scintillation counting method relative to control; assay type: functional
[4] = biological target: T2, Fatty-acid amide hydrolase 1 (Homo sapiens, UniProt O00519); assay: Inhibition of FAAH (unknown origin)
T2 sequence (O00519 whole entry): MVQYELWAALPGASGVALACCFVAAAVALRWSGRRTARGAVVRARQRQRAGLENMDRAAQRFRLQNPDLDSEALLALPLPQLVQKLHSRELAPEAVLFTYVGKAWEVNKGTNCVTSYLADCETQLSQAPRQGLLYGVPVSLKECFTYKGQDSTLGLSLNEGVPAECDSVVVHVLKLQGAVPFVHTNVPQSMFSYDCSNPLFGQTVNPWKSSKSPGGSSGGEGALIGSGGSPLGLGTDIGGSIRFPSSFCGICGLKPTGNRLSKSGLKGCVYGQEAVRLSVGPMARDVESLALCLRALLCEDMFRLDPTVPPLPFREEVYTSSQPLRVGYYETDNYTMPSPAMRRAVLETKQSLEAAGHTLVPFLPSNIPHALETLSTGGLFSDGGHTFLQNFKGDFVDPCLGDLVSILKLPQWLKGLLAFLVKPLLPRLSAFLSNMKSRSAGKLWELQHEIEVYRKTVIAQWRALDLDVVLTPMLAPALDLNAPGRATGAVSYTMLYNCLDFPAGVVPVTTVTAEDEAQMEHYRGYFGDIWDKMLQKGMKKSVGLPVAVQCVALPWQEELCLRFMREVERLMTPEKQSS

[5] = biological target: T2, Fatty-acid amide hydrolase 1; assay: Inhibition of human FAAH expressed in HEK293 cells using AMC arachidonyl amide as substrate pre-incubated for 50 mins followed by substrate addition and measured after 30 mins by fluorescence method; assay type: cell-based
[6] = biological target: T1, Fatty-acid amide hydrolase 1; assay: Inhibition of FAAH in Sprague-Dawley rat brain homogenate using arachidonoyl-ethanolamide and anandamide [ethanolamine-1-3H] as substrate pre-incubated for 10 mins followed by substrate addition and measured after 30 mins by liquid scintillation counting method; assay type: tissue-based
[7] = biological target: T1, Fatty-acid amide hydrolase 1; assay: Inhibition of FAAH in rat brain homogenate using 2-arachidonoyl-[3H]-glycerol as substrate by scintillation counting method; assay type: tissue-based
Rattus norvegicus = species: Rattus norvegicus; assay: Selectivity ratio of IC50 for rat NAAA using d4-PEA as substrate to IC50 for rat FAAH using [3H]-AEA as substrate
[8] = biological target: T1, Fatty-acid amide hydrolase 1; assay: Inhibition of rat FAAH expressed in HEK293 cells using AEA as substrate by HPLC-MS/MS analysis; assay type: cell-based
[9] = biological target: T3, Fatty-acid amide hydrolase 1 (Rattus norvegicus) (UniProt P97612); assay: Inhibition of FAAH in rat brain homogenate using [3H]AEA as substrate at 100 uM incubated for 10 mins by liquid scintillation spectroscopy relative to control; assay type: tissue-based
T3 sequence (whole entry): T1 sequence (P97612 whole entry)

[10] = biological target: T3, Fatty-acid amide hydrolase 1 (Rattus norvegicus); assay: Inhibition of rat FAAH expressed in HEK293 cells using AEA as substrate at 100 uM by liquid chromatography/mass spectroscopy relative to control; assay type: cell-based
[11] = biological target: T1, Fatty-acid amide hydrolase 1; assay: Inhibition of FAAH in rat brain homogenate using [3H]AEA as substrate; assay type: tissue-based
Cannabinoid receptor 2 = Cannabinoid receptor 2 (Homo sapiens, UniProt P34972); assay: Displacement of [3H]-CP55940 from recombinant human CB2 receptor expressed in CHO cells incubated for 90 mins by scintillation counting method; assay type: cell-based
[12] = biological target: T2, Fatty-acid amide hydrolase 1; assay: Inhibition of human recombinant FAAH using (AMC) arachidonoyl amide as substrate preincubated for 5 mins followed by substrate addition and measured after 30 mins by fluorescence method
[13] = Kinetic solubility of compound in PBS at pH 7.4; assay type: physicochemical; settings: read-out: Kinetic_solubility
[14] = biological target: T4, Fatty-acid amide hydrolase 1 (Mus musculus, UniProt O08914); assay: Inhibition of FAAH in OF1 albino mouse brain homogenate assessed as reduction in [3H]ethanolamine production using [3H]anandamide as substrate; assay type: tissue-based
T4 sequence (O08914 whole entry): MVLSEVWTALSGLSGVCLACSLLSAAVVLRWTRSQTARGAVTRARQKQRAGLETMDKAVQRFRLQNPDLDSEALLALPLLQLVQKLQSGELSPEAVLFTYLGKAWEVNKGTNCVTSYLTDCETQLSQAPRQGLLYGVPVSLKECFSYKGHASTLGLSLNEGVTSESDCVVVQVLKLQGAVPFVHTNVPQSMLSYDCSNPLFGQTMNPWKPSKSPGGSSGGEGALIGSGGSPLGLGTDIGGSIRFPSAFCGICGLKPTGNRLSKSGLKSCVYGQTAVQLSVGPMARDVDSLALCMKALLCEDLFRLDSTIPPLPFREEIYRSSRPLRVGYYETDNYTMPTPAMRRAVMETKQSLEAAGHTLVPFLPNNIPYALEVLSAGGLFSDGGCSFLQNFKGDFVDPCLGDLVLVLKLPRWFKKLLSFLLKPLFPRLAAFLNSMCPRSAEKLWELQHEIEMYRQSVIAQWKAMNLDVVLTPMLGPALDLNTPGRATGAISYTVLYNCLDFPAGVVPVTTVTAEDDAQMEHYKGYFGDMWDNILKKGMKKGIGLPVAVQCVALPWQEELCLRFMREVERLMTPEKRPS

[15] = biological target: T3, Fatty-acid amide hydrolase 1 (Rattus norvegicus); assay: Inhibition of FAAH in rat brain homogenate using AEA as substrate at 100 nM preincubated for 15 mins followed by substrate addition and measured after 10 mins by scintillation counting method relative to control; assay type: tissue-based; settings: time 25.0 min

Sequence of Cannabinoid receptor 2 (P34972 whole entry): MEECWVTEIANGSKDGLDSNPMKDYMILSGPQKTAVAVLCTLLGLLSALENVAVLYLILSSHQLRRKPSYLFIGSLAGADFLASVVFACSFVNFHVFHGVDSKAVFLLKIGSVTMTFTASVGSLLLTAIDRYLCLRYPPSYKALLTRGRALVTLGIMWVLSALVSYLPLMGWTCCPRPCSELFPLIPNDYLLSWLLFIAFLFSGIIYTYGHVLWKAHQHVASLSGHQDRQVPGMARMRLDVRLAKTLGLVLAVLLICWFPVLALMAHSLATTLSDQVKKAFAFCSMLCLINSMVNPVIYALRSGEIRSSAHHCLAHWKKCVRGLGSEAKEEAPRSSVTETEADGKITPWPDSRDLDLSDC

- pIC50 [4]: < 5.00
SMILES: CCCCCOc1ccccc1-c1cc(C(=O)NC23CC4CC(CC(C4)C2)C3)no1

- pIC50 [1]: 9.52
- Ratio IC50 (Rattus norvegicus): > 10000
SMILES: CC(=O)Oc1cn(C(=O)NCCCc2ccc(-c3ccccc3)cc2)c(=O)[nH]c1=O

- pIC50 [8]: 7.28
SMILES: O=C(NCCc1ccc(-c2ccccc2)cc1)n1ccc(=O)[nH]c1=O

- inhibition [9]: 41%
SMILES: COc1cccc(N2CCN(C(=O)C(C)c3ccc(CC(C)C)cc3)CC2)c1 (centres undefined)

- pIC50 [11]: 5.96
SMILES: O=C(COc1ccc(-c2ccccc2)cc1)Nc1ccccc1-c1nc2ncccc2[nH]1

- pIC50 [11]: 6.46
SMILES: O=C(COc1ccc(-c2ccccc2)cc1)Nc1ccc(-c2nc3ncccc3o2)cc1

- pIC50 [1]: 9.10
- Ratio IC50 (Rattus norvegicus): > 10000
SMILES: CC(=O)Oc1cn(C(=O)NCCCCc2ccc(-c3ccccc3)cc2)c(=O)[nH]c1=O

- pIC50 [11]: 5.82
SMILES: O=C(COc1ccc(C2CCCCC2)cc1)Nc1ccc(-c2nc3ncccc3[nH]2)cc1

- pIC50 [11]: 6.19
SMILES: O=C(COc1ccc(C2CCCCC2)cc1)Nc1ccccc1-c1nc2ncccc2[nH]1

- pIC50 [11]: 4.14
SMILES: CCC/C=C/COCC(=O)Nc1cccc(-c2nc3cccnc3[nH]2)c1

- pIC50 (Cannabinoid receptor 2): < 6.00
SMILES: CCCCCOc1ccc(-c2cc(C(=O)NC34CC5CC(CC(C5)C3)C4)no2)cc1

- pIC50 [11]: 5.26
SMILES: CCC/C=C/COCC(=O)Nc1ccccc1-c1nc2ncccc2[nH]1

- pIC50 [11]: 4.19
SMILES: CCCC/C=C/COCC(=O)Nc1ccc(-c2nc3ncccc3[nH]2)cc1

- inhibition [15]: 85%
SMILES: CN(C(=O)n1cnc(-c2ccc[n+]([O-])c2)c1)C1CCCCC1

More lines, now with the values behind:

SMILES: CCCCCCNC(=O)n1cc(C#N)c(=O)[nH]c1=O
- pIC50 [1]: 7.60

SMILES: Cl.O=c1oc(Oc2ccc(F)cc2F)nn1-c1ccc(OCCN2CCCCC2)cc1
- Activity [2]: 20%
- Activity [3]: 10%

SMILES: O=C(NCCCCN1CCN(c2cccc(Cl)c2Cl)CC1)Oc1ccc2ccccc2c1
- pIC50 [5]: 8.57
- pIC50 [6]: 7.89

SMILES: O=C(N1CCN(Cc2nc3ccccc3n3cccc23)CC1)n1cncn1
- pIC50 [7]: 7.43

SMILES: O=C(N1CCN(Cc2nc3cc(F)ccc3n3cccc23)CC1)n1cncn1
- pIC50 [7]: 7.68

SMILES: CC(=O)Oc1cn(C(=O)NCCCCCCCc2ccccc2)c(=O)[nH]c1=O
- pIC50 [1]: 8.52
- Ratio IC50 (Rattus norvegicus): 3130

SMILES: Cl.O=c1oc(Oc2ccc(F)cc2F)nn1-c1ccc(OCCN2CCCC2)cc1
- Activity [2]: 10%
- Activity [3]: 9%

SMILES: CCCCCCNC(=O)n1cc(F)c(=O)[nH]c1=O [CARMOFUR]
- pIC50 [1]: 7.60

SMILES: NC(=O)c1cccc(-c2cccc(OC(=O)NCCCN3CCN(c4cccc(Cl)c4Cl)CC3)c2)c1
- pIC50 [6]: 10.00

SMILES: CCCCCCCC/C=C\CCCCCCCC(=O)NO
- inhibition [10]: 98.3%

SMILES: O=C(N1CCN(Cc2nc3cc(Cl)ccc3n3cccc23)CC1)n1nnc2ccccc21
- pIC50 [7]: 7.45

SMILES: Cc1ccccc1N1CCN(C(=O)C(C)c2ccc(CC(C)C)cc2)CC1 (centres undefined)
- inhibition [9]: 33%

SMILES: Cc1ccc2c(nc(CNC3CCN(C(=O)n4nnc5ccccc54)CC3)c3cccn32)c1C
- pIC50 [7]: 7.60

SMILES: O=C(N1CCN(Cc2nc3cc(F)ccc3n3cccc23)CC1)n1nnc2ccccc21
- pIC50 [7]: 7.63

SMILES: Cl.Cl.O=c1oc(Oc2ccc(F)cc2F)nn1-c1ccc(OCCN2CCNCC2)cc1
- Activity [2]: 74%
- Activity [3]: 5%

SMILES: O=C(N1CCC(NCc2nc3cc(F)ccc3n3cccc23)CC1)n1nnc2ccccc21
- pIC50 [7]: 8.02

SMILES: Cc1ccc2c(nc(CN3CCN(C(=O)n4nnc5ccccc54)CC3)c3cccn32)c1C
- pIC50 [7]: 7.56

SMILES: O=C(N1CCN(Cc2nc3ccccc3n3cccc23)CC1)n1nnc2ccccc21
- pIC50 [7]: 7.63

SMILES: O=C(N1CCN(Cc2nc3cc(Cl)ccc3n3cccc23)CC1)n1cncn1
- pIC50 [7]: 7.60

SMILES: CCCCCCNC(=O)n1cc(OC(C)=O)c(=O)[nH]c1=O
- pIC50 [1]: 7.60

SMILES: O=C(NCCCc1ccccc1)n1cc(C(F)(F)F)c(=O)[nH]c1=O
- pIC50 [8]: 7.68

SMILES: CCCCCCNC(=O)n1ccc(=O)[nH]c1=O
- pIC50 [1]: 6.31
- Ratio IC50 (Rattus norvegicus): 2

SMILES: O=C1/C(=N/c2nc3ccccc3[nH]2)c2ccccc2N1C(=O)c1ccc(Cl)cc1Cl
- pIC50 [12]: 5.83

SMILES: O=c1oc(Oc2ccc(F)cc2F)nn1-c1cccc(O)c1
- Activity [2]: 94%
- Activity [3]: 12%

SMILES: O=c1oc(Oc2ccc(F)cc2F)nn1-c1ccc(O)cc1
- Activity [2]: 86%
- Activity [3]: 12%

SMILES: Cl.Cl.O=c1oc(Oc2ccc(F)cc2F)nn1-c1ccc(OCCCN2CCNCC2)cc1
- Activity [2]: 85%
- Activity [3]: 8%

SMILES: O=C(NCCCCN1CCN(c2cccc(Cl)c2Cl)CC1)Oc1cccc2ccccc12
- pIC50 [5]: 8.21
- pIC50 [6]: 7.66
- solubility kinetic [13]: < 1 µM

SMILES: Cc1ccc2c(nc(CN3CCN(C(=O)n4cncn4)CC3)c3cccn32)c1C
- pIC50 [7]: 7.49

SMILES: COc1ccc2c(cccc2[C@H]2CO[C@H](CCCNC(=O)OCC(N)=O)OC2)c1
- pIC50 [14]: 7.20

SMILES: NC(=O)c1ccc(-c2ccc(OC(=O)NCCCCN3CCN(c4cccc(Cl)c4Cl)CC3)cc2)cc1
- pIC50 [5]: 9.22
- pIC50 [6]: 9.15

SMILES: CC(C)Cc1ccc(C(C)C(=O)NCc2c(Cl)cccc2Cl)cc1 (centres undefined)
- inhibition [9]: 19%
